# From patent US20100240040A1, “METHOD FOR SCREENING FOR SELECTIVE MODULATOR OF THE NF-KB PATHWAY ACTIVATION” (INSTITUT PASTEUR, priority 2007, published 2010)
# Where a SMILES comes first, the peptide text is derived from it.
# Columns and labels:
# [1] = system: NF-κB pathway; test: NF-κB inhibition assay (β-galactosidase reporter) in 70Z/3-C3 cells; format: cell-based; details: pre-B 70Z3 lymphocytes activated with PMA, IL-1 or LPS; similar for the stimuli; read-out: IC50 of inhibition of the NF-kB pathway
# Experimental: 4.5×10^5 70Z/3-C3 cells in 450 μl of 10% FCS-RPMI (Invitrogen) were incubated with 0-20 μM peptide BA-DR NLM or BA-NLM. After 2 h at 37° C., 200 μl of cell samples were transferred in duplicate to a 96-well micro titer plate. One well was treated for 4 h with either 15 μg/ml LPS, 20 ng/ml IL1-β or 100 ng/ml PMA. A control well was left untreated. After 4 h at 37° C., cells were centrifuged at 400×g for 5 min at room temperature, the pellets were washed three times with cold PBS (200 μl), and the cells were lysed in 100 μl of lysis buffer (25 mM tris-phosphate buffer at pH7.8 containing 8 mM MgCl2, 1 mM dithioerythreitol, 1% Triton X-100, 15% glycerol and a protease inhibitor mixture (Roche Applied Science, ref. 1836145)). The lysate was centrifuged at 1000×g for 20 min at 4° C., and supernatant was kept on ice before performing the β-galactosidase assay. β-galactosidase assays were performed on 50 μl of the supernatant and in an assay mix containing 4 μl of Galacton-star chemiluminescent substrate and 196 μl of reaction buffer (Clonetech). The activity was measured with a plate luminometer (Berthold).
# [2] = target: T1, Flag-NEMO (Mus musculus, UniProt O88522, A144V/E216G/P360T/S248N); test: Pull-down of Flag-NEMO from JM4.5.2/Flag-NEMO cells treated with Bodipy-conjugated peptides, bead fluorescence; format: cell-based, murine; details: 20 μM peptide, 4 h
# T1 construct: expressed in transfected cells
# T1 sequence (O88522 with tags, fused parts or gaps A144V/E216G/S248N/P360T): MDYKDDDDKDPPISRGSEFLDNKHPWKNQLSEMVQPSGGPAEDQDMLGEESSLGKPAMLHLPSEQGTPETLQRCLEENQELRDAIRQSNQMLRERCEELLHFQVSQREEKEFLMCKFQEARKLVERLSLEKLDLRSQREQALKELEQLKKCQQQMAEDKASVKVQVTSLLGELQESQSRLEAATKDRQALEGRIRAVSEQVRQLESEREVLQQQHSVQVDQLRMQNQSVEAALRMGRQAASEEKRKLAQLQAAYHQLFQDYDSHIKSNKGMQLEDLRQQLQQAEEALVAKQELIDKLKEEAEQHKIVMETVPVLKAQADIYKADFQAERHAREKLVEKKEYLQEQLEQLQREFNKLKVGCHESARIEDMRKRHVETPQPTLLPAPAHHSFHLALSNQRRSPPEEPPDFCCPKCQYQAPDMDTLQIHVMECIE
# Experimental: 5·10^6 JM4.5.2/Flag-NEMO cells were seeded in 6-well plates (3 ml/well) and incubated with 20 μM of Bodipy-conjugated peptides (BA-NLM or BA-DR NLM) for 4 h at 37° C. Cells were centrifuged at 400×g for 5 min, resuspended in 200 μl of an hypotonic buffer (10 mM TrisHCl pH 7.9, 1.5 mM MgCl2, 10 mM KCl), left on ice for 20 min and lysed by several passage through a 26 G needle. Lysates were clarified at 15 000×g for 20 min and 80 μg of total proteins were incubated with 40 μl of agarose anti-Flag M2 beads for 1 h at 4° C. The Flag-NEMO protein were pulled down with the agarose anti-Flag M2 beads by centrifugation for 1 min. Beads were resuspended in 100 μl of hypotonic buffer and the fluorescence of NEMO linked peptide was read on microplate reader from SAFAS. NEMO coated beads were analyzed by Western blotting using anti-Flag M2 monoclonal antibodies to normalize the sample using the UN-SCAN-IT software. […]
# [3] = Circular dichroism and gel filtration, self-association of peptides; format: physicochemical; details: peptide concentration up to 100 μM; data not shown
# Experimental: Far-UV circular dichroism (CD) measurements were performed with an Aviv 215 spectropolarimeter with samples diluted in 10 mM NaPO4 at pH 7.
# Then, unlike the LZ peptide, DR NLM peptide as well as NLM peptide are unable to self-associate. Self association of LZ peptide is described by Agou et al., 2004b.
compound,measurement,setting,value
CC[C@H](C)[C@H](NC(=O)[C@H](CC(=O)O)NC(=O)[C@H](C)NC(=O)[C@H](CCC(N)=O)NC(=O)[C@H](C)NC(=O)[C@H](CCCCN)NC(=O)[C@H](CC(C)C)NC(C)=O)C(=O)N[C@@H](Cc1ccc(O)cc1)C(=O)N[C@@H](CCCCN)C(=O)N[C@@H](C)C(=O)N[C@@H](CCCNC(=N)N)C(=O)N[C@@H](Cc1ccccc1)C(=O)N[C@@H](CCC(N)=O)C(=O)N[C@@H](C)C(=O)N[C@@H](CCC(=O)O)C(=O)N[C@@H](CCCNC(=N)N)C(=O)N[C@@H](Cc1c[nH]cn1)C(=O)N[C@@H](C)C(=O)N[C@@H](CCCNC(=N)N)C(=O)N[C@@H](CCC(=O)O)C(=O)N[C@@H](CCCCN)C(N)=O [DR NLM] (Ac-LKAQADIYKARFQAERHAREK-NH2; N-terminus and C-terminus assumed),IC50,[1],900 nM
same,peptide bound to NEMO in cells (bead fluorescence),[2],binds specifically to NEMO
same,oligomeric state / self-association,[3],behave as monomer
